According to US8835644B2, “Broad spectrum benzothiophene-nitrothiazolide and other antimicrobials” (University of Virginia Patent Foundation, priority 2009, dated 2014):
In brackets after ≈: the same amount, converted by molar mass. Several values for one entry are separate records, joined by “and”; a condition that tells them apart may be missing. Equal entries are not always repeated. Where two headings read alike, the source gives them in different places.

Columns and labels:
S. epidermidis 9142 = test: Biofilm dispersal assay; type: cell-based, Staphylococcus epidermidis; settings: drug added to 4 h biofilm
H. pylori = test: MIC testing by broth dilution, H. pylori; type: cell-based, Helicobacter pylori
Method in brief: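 Helicobacter pylori was tested using a standard broth dilution method in 96 well microplates, each well holding a standard dilution of the organism in 100 microliters of Brain Heart Infusion. Compounds started at 32 μg/ml in 200 microliters in the first well and were serially diluted from 32 to 0.06. Wells were read visually at 24 h, and the MIC was the well with no growth.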

[1] = system: S. haemolyticus strain 33208; test: Biofilm determination, crystal violet, S. haemolyticus; type: cell-based; settings: Staphylococcus haemolyticus; S. haemolyticus strain 33208, crystal violet; read-out: IC50 biofilm production
Protocol: (§1) Staphylococcal strains were cultured overnight in TSB at 37° C. with shaking, diluted in fresh medium to an OD600 of 0.01 and 200 W was dispensed into sterile flat bottom polystyrene 96 well microtiter plates (Costar 3596, Corning Inc.). […] Each compound and dilution was tested in triplicate. The plates were incubated overnight at 37° C. in a humidified incubator, without shaking and both growth and biofilm accumulation were determined at 16 h.
(§2) Following recording of turbidities, the culture medium was aspirated and the wells were washed three times with distilled water, blotted on paper towels, and fixed with 75% ethanol for 10 minutes.
(§3) To visualize biofilm material, 0.5% crystal violet was added to each well and after 5 minutes was removed and the wells washed three times with distilled water. Plates were read using a microplate reader at a wavelength of 570 nm. The dye was then extracted by adding 200 W of 95% ethanol, and the absorbance was read again at 570 nm. All assays were performed in triplicate and the mean and standard deviation determined. Generally, the ethanol-solubilized crystal violet was more reliable and these determinations are reported throughout.

[2] = system: PFOR (pyruvate ferredoxin oxidoreductase); test: Direct PFOR enzyme assay; type: biochemical
[3] = Zn2+ chelation, spectrophotometric and 1H NMR; type: physicochemical; settings: 1H NMR in DMSO-d6, ratios 1:1, 1:2, 2:1, up to 72 h
Protocol: To test direct binding of Zn^2+ by NTZ in solution, we tested a range of concentrations of both NTZ and TIZ and scanned the solutions spectrophotometrically using an OLIS Cary-14 (OLIS Instruments Co., Bogart Ga.). Absolute spectra were recorded over a UV/Vis range from 220 nm to 700 nm. Spectral shifts in the 418 nm range would be attributable to changes in resonance within the thiazole ring that would result if Zn^2+ were coordinated by NTZ (9).
Chelation experiments were also performed utilizing NTZ and TIZ in DMSO-d6 (0.5 mL) with ZnCl2 using a 300 MHz Varian MercuryPlus spectrometer. Specifically, three ratios of NTZ to Zn^2+ were investigated (1:1, 1:2, 2:1) where NTZ was held constant (4 mg, 13 μmoles) while varying ZnCl2 (1.8 mg, 13 μmoles or 3.5 mg, 26 μmoles) or NTZ (8 mg, 26 μmoles) with ZnCl2 (1.8 mg, 13 μmoles). Three ratios of TIZ to Zn^2+ were also investigated (1:1, 1:2, 2:1) where TIZ was held constant (4 mg, 15 μmoles) while varying ZnCl2 (2.1 mg, 15 μmoles or 4.1 mg, 30 μmoles) or TIZ (8 mg, 30 μmoles) with ZnCl2 (2.1 mg, 15 μmoles). ^1H NMR spectra were then obtained after mixing for 5 min, 24 h, 48 h, and 72 h at room temperature. Any chelation event would be evidenced by shifting or broadening of the thiazole and benzene protons as well as loss of the amide proton.

[4] = system: S. epidermidis strain 9142; test: Biofilm determination, crystal violet, S. epidermidis; type: cell-based, Staphylococcus epidermidis
Protocol: as §1, §2, §3

EAEC = test: Motility in soft agar; type: cell-based, Escherichia coli; settings: concentrations that inhibited biofilm formation
Protocol: EAEC strains were grown overnight in MinA-G medium at 37° C. with shaking and used to inoculate fresh MinA-G medium containing a range of NTZ concentrations (0, 5, 10, 15, 20, and 25 μg/ml) to a starting OD600 of 0.1. Growth was recorded as the absorbance at 600 nm at 30-minute intervals over a period of eight hours. […] Motility was assessed in LB soft agar (0.3% agar) containing 0 to 25 μg/ml of NTZ. The diameter of outward spreading was measured daily and inhibition computed as percent of control.

E. coli biofilm = E. coli biofilm assay (activity tables); type: cell-based, Escherichia coli
Method in brief: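 E. coli strain 042 inoculated 1:100 with NTZ-containing medium and grown statically at 37 °C for 24 h. Growth measured by turbidity or plate counts (cfu/ml); biofilm stained with 0.5% crystal violet and read at 570 nm; triplicate, mean ± SD.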

Q: Which “Dispersal of preformed biofilm” value (S. epidermidis 9142) does the source give for CC(=O)Oc1ccccc1C(=O)Nc1ncc([N+](=O)[O-])s1 [Nitazoxanide, 2-(acetyloxy)-N-(5-nitro-2-thiazolyl)benzamide, reference compound] here?
A: not dispersive

Q: What about the MIC (H. pylori; 2-amino-3,5-dinitrothiophene analogues table, read-out: MIC H. pylori) of the same molecule?
A: 13.0 µM (≈ 3.99 µg/mL)

Q: What about the MIC (H. pylori; Helicobacter pylori, Furan analogues table, read-out: MIC H. pylori) of the same molecule?
A: 13 µM (≈ 3.99 µg/mL)

Q: What about the MIC (H. pylori; Helicobacter pylori, broth dilution, Brain Heart Infusion, 24 h, read-out: MIC (μM) H. pylori) of the same molecule?
A: 13 µM (≈ 3.99 µg/mL)

Q: And the MIC (H. pylori; Thiophene analogues table, read-out: MIC H. pylori)?
A: 13.0 µM (≈ 3.99 µg/mL)

Q: What about the IC50 [1] of the same molecule?
A: 2.5 µg/mL (≈ 8.14 µM)

Q: What about the “PFOR inhibition relative to nitazoxanide (=100)” value [2] of the same molecule?
A: 100%

Q: And the “PFOR inhibition relative to nitazoxanide (=100)” value ([2]; * biphasic initial inhibition followed by uninhibited rate, ** caused some precipitant in extract)?
A: 100%

Q: And the “PFOR inhibition relative to nitazoxanide (=100)” value ([2]; Furan analogues table)?
A: 100%

Q: What about the “PFOR inhibition relative to nitazoxanide (=100)” value ([2]; Thiophene analogues table) of the same molecule?
A: 100%

Q: What about the “Chelation with ZnCl2” value [3] of the same molecule?
A: No chelation

Q: What about the IC50 biofilm production ([4]; S. epidermidis strain 9142, crystal violet, listed as NTZ) of the same molecule?
A: 4 µg/mL (≈ 13 µM)

Q: What about the IC50 ([4]; Staphylococcus epidermidis, 9142, S. epidermidis strain 9142, crystal violet, read-out: IC50 biofilm production) of the same molecule?
A: 2.5 µg/mL and ~8 µM

Q: And the IC50 ([4]; Staphylococcus epidermidis, 9142, clinical S. epidermidis isolates and strain 5179-R1, read-out: IC50 biofilm formation, all strains tested)?
A: 2.5 to 5 µg/mL (≈ 8.14 to 16.3 µM)

Q: And the “Biofilm accumulation on the bottom of flasks” value ([4]; static (microaerobic) growth, 15 μg/ml)?
A: completely ablated

Q: What about the “Effect on swarming motility in soft agar” value (EAEC) of the same molecule?
A: no effect

Q: And the MIC (E. coli biofilm; Escherichia coli, biofilm, Furan analogues table, read-out: MIC E. coli Biofilm)?
A: 26 µM (≈ 7.99 µg/mL)

Q: And the MIC (E. coli biofilm; Escherichia coli, read-out: MIC (μM) E. coli Biofilm)?
A: 26 µM (≈ 7.99 µg/mL)

Q: What about the MIC (E. coli biofilm; biofilm, 2-amino-3,5-dinitrothiophene analogues table, read-out: MIC E. coli Biofilm) of the same molecule?
A: 26.0 µM (≈ 7.99 µg/mL)

Q: And the MIC (E. coli biofilm; biofilm, Thiophene analogues table, read-out: MIC E. coli Biofilm)?
A: 26.0 µM (≈ 7.99 µg/mL)
